Measured values published in patent publication US20040265300A1, “Chimeric molecules containing a module able to target specific cells and a module regulating the apoptogenic function of the permeability transition pore complex (PTPC)” (priority 2001, published 2004).
Ends that are not written are not given here. Peptide text beside a SMILES is read from it. * marks the point of attachment. Biotin = O=C1N[C@H]2[C@H](CS[C@H]2CCCCC(=O)*)N1

Experiments:
[1] = system: permeability transition pore (PTP); assay: Swelling of isolated mitochondria (large amplitude swelling, 90° light scattering); type: biochemical, rat; parameters: key to Induction of Mitochondrial swelling (sw): +++ rapid sw; ++ low sw; + very low sw; − no sw; settings: for Induction of Mitochondrial swelling (sw): 5 μM, t 20 min
Experimental: Mitochondria are purified from rat liver, as described (Costantini et al., 1996), and resuspended in 250 mM sucrose +0.1 mM EGTA +10 mM -tris[hydroxymethyl]methyl-2-Aminoethanesulfonic acid, pH=7.4). For the induction of PT, mitochondria (0.5 mg protein per ml) are resuspended in PT buffer (200 mM sucrose, 10 mM Tris-MOPS (pH 7.4), 5 MM Tris-succinate, 1 mM Tris-phosphate, 2 μM rotenone, and 10 μM EGTA-Tris), and monitored in an F4500 fluorescence spectrometer (Hitachi, Tokyo, Japan) for the 90° light scattering of light (545 nm) to determine large amplitude swelling after addition of 2 mM atractyloside (Atr), 1 μM cyclosporin A (CsA; Novartis, Basel, Switzerland), 5 μM CaCl2, and/or 0.5 to 20 μM of pTarg-pTox or pTarg-pSave. For the determination of the ΔΨm, mitochondria (0.5 mg protein per ml) are incubated in a buffer supplemented with 1μM rhodamine 123 (Molecular Probes, Eugene, OR) and the dequenching of rhodamine fluorescence (excitation 505 nm, emission 525 nm) is measured as described (Shimizu et al., 1998). Supernatants from mitochondria (6800 g for 15 min; then 20 000 g for 1 h; 4° C.) are frozen at −80° C. until determination of apoptogenic activity on isolated nuclei, DEVD-afc cleaving activity, and immunodetection of cytochrome c and AIF. Cytochrome c and AIF are detected by means of a monoclonal antibody (clone 7H8.2C12, Pharmingen) and a polyclonal rabbit anti-serum (Susin et al. 1999) respectively.

purified ANT = biological target: T1, purified ANT (Rattus norvegicus, UniProt Q05962); type: binding; settings: for Kd: one ANT concentration only, 50 nM, read-out: relative affinities of ANT for the peptide; for binding to purified ANT: surface plasmon resonance
T1 sequence (Q05962 1-298): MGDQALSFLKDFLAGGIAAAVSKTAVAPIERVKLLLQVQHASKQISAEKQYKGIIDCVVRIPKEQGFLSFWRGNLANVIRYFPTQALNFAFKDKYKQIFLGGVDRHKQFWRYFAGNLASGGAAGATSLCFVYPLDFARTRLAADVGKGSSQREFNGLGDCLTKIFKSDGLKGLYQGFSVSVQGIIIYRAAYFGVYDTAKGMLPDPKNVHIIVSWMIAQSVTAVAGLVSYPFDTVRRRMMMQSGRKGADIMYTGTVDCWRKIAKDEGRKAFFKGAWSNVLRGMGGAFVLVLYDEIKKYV
Experimental: (§1) Sensor Chips SA (streptavidin coated sensor chips) were used for immobilisation of the different peptides. Tox1 was immobilised at a density of 0.7 ng/mm^2, Tox0 at a density of 3.7 ng/mm^2,. Ctrl Tox0 at a density of 1.4 ng/mm^2, Tox5 at a density of 1 ng/mm^2, Tox6 at a density of 1 ng/mm^2, Save 1 at a density of 1.3 ng/mm^2, and the control peptide at a density of 0.8 ng/mm^2. Association and dissociation kinetics of ANT and VDAC interactions were followed at a rate of 10 μL/min for 10 minutes (5 minutes association and 5 minutes dissociation). The ligand was regenerated with a 1 minute flux of KSCN 3M. The obtained sensorgrams were analysed by the B1Aeval 3.1 software using the method of double references (Myszka D.G. 2000. Kinetic, equilibrium and thermodynamic analysis of macromolecular interactions with BIACORE. Methods Enzymol. 323:325-340). From the sensorgrams with the ligands were first substracted the sensorgrams obtained with the corresponding analyte solvents. A second substraction was performed with the sensorgrams obtained with the control peptide ligand. The control peptide for the Tox and Save peptides was biot-H19C corresponding to the sequence of the β2-adrenergic receptor (Lebesgue D., Wallukat G., Mijares A., Granier C., Argibay J., and Hoebeke J. (1998) An agonist-like monoclonal antibody to the human β 2-adrenergic receptor. Eur.J. Pharmacol. 348:123-133). The control peptide for Tox0 was Ctr1 Tox0.

purified VDAC = purified VDAC (Homo sapiens, UniProt P21796); assay: Surface plasmon resonance, immobilised peptides with purified VDAC; type: binding; settings: for specific binding of VDAC: 50 nM VDAC
purified VDAC, sequence (P21796 whole entry, species assumed): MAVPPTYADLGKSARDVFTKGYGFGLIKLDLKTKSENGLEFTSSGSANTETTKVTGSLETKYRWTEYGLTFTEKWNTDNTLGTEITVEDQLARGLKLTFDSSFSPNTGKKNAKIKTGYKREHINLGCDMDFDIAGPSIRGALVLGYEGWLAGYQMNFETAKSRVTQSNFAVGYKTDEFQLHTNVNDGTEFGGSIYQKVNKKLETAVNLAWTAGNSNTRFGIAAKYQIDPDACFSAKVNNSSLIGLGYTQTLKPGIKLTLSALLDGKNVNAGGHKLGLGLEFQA
Experimental: as §1

| Molecule | Induction of Mitochondrial swelling (sw) [1] | binding to purified ANT (purified ANT) | specific binding of VDAC (purified VDAC) | further results |
| --- | --- | --- | --- | --- |
| C[C@@H](O)[C@H](NC(=O)[C@H](CCCNC(=N)N)NC(=O)[C@H](CCCCN)NC(=O)[C@H](CC(=O)O)NC(=O)CNC(=O)CNC(=O)[C@H](CS)NC(=O)[C@H](CCCNC(=N)N)NC(=O)CNC(=O)[C@H](CC(N)=O)NC(=O)[C@H](CS)NC(=O)CCCC[C@@H]1SC[C@@H]2NC(=O)N[C@@H]21)C(=O)N[C@@H](CCC(N)=O)C(=O)N[C@@H](Cc1ccccc1)C(=O)N[C@@H](Cc1c[nH]c2ccccc12)C(=O)N[C@@H](CCCNC(=N)N)C(=O)N[C@@H](Cc1ccc(O)cc1)C(=O)N[C@@H](Cc1ccccc1)C(=O)N1CCC[C@H]1C(=O)NCC(=O)N[C@@H](CC(N)=O)C(=O)O [Tox5, Biot-CNGRC-GG-DKRTQFWRYFPGN (hANT2m)] (Biotin-CNGRCGGDKRTQFWRYFPGN-OH; N-terminus and C-terminus assumed) | ++ | Binds Purified ANT | did not result in any specific binding | Kd (purified ANT): 0.1 nM |
| [Ca+2] [Ca 2+, reference compound] |  |  |  | Mitrochondrial swelling (sw) % ([1]; 100 μM): 100% |
| C[C@H](NC(=O)CCCC[C@@H]1SC[C@@H]2NC(=O)N[C@@H]21)C(=O)N[C@@H](CS)C(=O)N[C@@H](CC(=O)O)C(=O)N[C@@H](CS)C(=O)N[C@@H](CCCNC(=N)N)C(=O)NCC(=O)N[C@@H](CC(=O)O)C(=O)N[C@@H](CS)C(=O)N[C@@H](Cc1ccccc1)C(=O)N[C@@H](CS)C(=O)NCC(=O)NCC(=O)N[C@@H](CC(=O)O)C(=O)N[C@@H](CCCCN)C(=O)N[C@@H](CCCNC(=N)N)C(=O)N[C@H](C(=O)N[C@@H](CCC(N)=O)C(=O)N[C@@H](Cc1ccccc1)C(=O)N[C@@H](Cc1c[nH]c2ccccc12)C(=O)N[C@@H](CCCNC(=N)N)C(=O)N[C@@H](Cc1ccc(O)cc1)C(=O)N[C@@H](Cc1ccccc1)C(=O)N1CCC[C@H]1C(=O)NCC(=O)N[C@@H](CC(N)=O)C(=O)O)[C@@H](C)O [Tox6, Biot-ACDCRGDCFC-GG-DKRTQFWRYFPGN (hANT2m)] (Biotin-ACDCRGDCFCGGDKRTQFWRYFPGN-OH; N-terminus and C-terminus assumed) | ++ | Binds Purified ANT | did not result in any specific binding | Kd (purified ANT): 0.7 nM |
| Biot-CNGRC-GG-CNGRC [Ctr2Tox1] | − |  |  |  |
| Biot-CNGRC-GG-HFAIGCRHSAIG (Biotin-CNGRCGGHFAIGCRHSAIG; cysteine pairing not given here) [Ctr1Tox1] | − |  |  |  |
| C[C@H](NC(=O)[C@H](Cc1ccccc1)NC(=O)[C@H](Cc1ccc(O)cc1)NC(=O)[C@H](CCCNC(=N)N)NC(=O)[C@H](Cc1c[nH]c2ccccc12)NC(=O)[C@H](Cc1ccccc1)NC(=O)[C@H](CCC(N)=O)NC(=O)[C@@H](NC(=O)[C@H](CCCNC(=N)N)NC(=O)[C@H](CCCCN)NC(=O)[C@H](CC(=O)O)NC(=O)[C@H](CCCNC(=N)N)NC(=O)[C@H](CCCNC(=N)N)NC(=O)[C@H](CCCNC(=N)N)NC(=O)[C@H](CCC(N)=O)NC(=O)[C@H](CCCNC(=N)N)NC(=O)[C@H](CCCNC(=N)N)NC(=O)[C@H](CCCCN)NC(=O)[C@H](CCCCN)NC(=O)[C@H](CCCNC(=N)N)NC(=O)CCCC[C@@H]1SC[C@@H]2NC(=O)N[C@@H]21)[C@@H](C)O)C(=O)NCC(=O)N[C@@H](CC(N)=O)C(=O)O [Save1, Biot-RKKRRQRRR-DKRTQFWRYFAGN (hANT2)] (Biotin-RKKRRQRRRDKRTQFWRYFAGN-OH; C-terminus assumed) |  | Binds Purified ANT | did not result in any specific binding |  |
| Biot-GG-HFRIGCRHSRIG [Ctr3Tox1] | + |  |  |  |
| Biot-CNGRC-GG-HFRIGCRHSRIG [Tox1] | ++ | Binds Purified ANT |  | association of VDAC with the peptide ligand (purified VDAC; VDAC concentrations ten times higher than ANT): extremely low association |
| C=C1[C@@H]2CC[C@H]3[C@]4(C)C[C@H](O[C@@H]5O[C@H](CO)[C@@H](OS(=O)(=O)O)[C@H](OS(=O)(=O)O)[C@H]5OC(=O)CC(C)C)C[C@@H](C(=O)O)[C@H]4CC[C@]3(C2)[C@H]1O [Atractyloside, atractyloside, reference compound] |  |  |  | Mitrochondrial swelling (sw) % ([1]; 600 μM): 110% |
